Patent US8778929B2, “Substituted heteroaryl inhibitors of B-RAF” (Boehringer Ingelheim International GmbH, priority 2008, dated 2014)

Biological target: B-Raf (V600E)-kinase (Homo sapiens, UniProt P15056, V600E)
Test: Kinase test B-Raf (V600E)
Format: biochemical
Conditions: 100% = no inhibition, 0% = total inhibition, read-out: % CTL (residual activity of the enzyme relative to DMSO control); for remaining activity at 2 µM: compound concentration 2 μM; for remaining activity at 1.43 µM: measurement at 1.43 μM (***)
Method in brief: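 Kinase preincubated with compound (typically 2 μM to 0.119 nM or 0.017 nM, 5% DMSO) 1 h at RT, then reacted 60 min at RT with 250 μM ATP and biotinylated MEK1. Phospho-MEK (Ser217/221) captured on streptavidin, detected by europium time-resolved fluorescence; IC50 from dose-response curves.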

Chain of B-Raf (V600E)-kinase (P15056 whole entry V600E): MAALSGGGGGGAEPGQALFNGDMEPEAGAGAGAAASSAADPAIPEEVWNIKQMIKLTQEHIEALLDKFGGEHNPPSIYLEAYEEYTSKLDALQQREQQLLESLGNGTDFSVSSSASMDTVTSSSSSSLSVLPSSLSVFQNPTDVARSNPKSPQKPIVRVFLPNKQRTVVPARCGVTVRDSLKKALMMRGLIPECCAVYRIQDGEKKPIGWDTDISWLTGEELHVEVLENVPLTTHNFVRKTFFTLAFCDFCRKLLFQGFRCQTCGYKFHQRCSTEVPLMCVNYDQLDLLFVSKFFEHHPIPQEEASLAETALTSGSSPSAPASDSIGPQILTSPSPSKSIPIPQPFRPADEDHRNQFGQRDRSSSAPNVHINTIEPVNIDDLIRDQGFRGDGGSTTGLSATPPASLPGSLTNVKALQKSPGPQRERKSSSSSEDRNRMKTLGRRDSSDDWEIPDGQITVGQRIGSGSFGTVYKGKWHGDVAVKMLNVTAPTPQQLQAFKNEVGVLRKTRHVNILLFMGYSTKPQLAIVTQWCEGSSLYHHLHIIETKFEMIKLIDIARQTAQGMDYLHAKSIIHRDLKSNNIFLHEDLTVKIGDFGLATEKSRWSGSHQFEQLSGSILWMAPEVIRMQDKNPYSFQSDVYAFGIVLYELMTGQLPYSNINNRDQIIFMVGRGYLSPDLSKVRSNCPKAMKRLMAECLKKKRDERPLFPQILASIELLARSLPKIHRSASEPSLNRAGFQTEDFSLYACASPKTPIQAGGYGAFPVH

Structure (SMILES)	remaining activity at 2 µM [%]	other results
Cc1ncc(NC(=O)c2cccc(C(C)(C)C#N)c2)cc1-n1cc(-c2cnn(C)c2C)nn1 [XII-6]	4.7	
Cc1ncc(C(=O)Nc2cc(C(C)(C)C)on2)cc1-n1cc(-c2cccnc2)nn1 [Example I-80]	1.9	
CCN1CCN(c2cc(NC(=O)c3cnc(C)c(-n4cc(-c5cncc(C#N)c5)nn4)c3)cc(C(F)(F)F)c2C)CC1 [Example I-49]	6.2	
Cc1ncc(C(=O)Nc2cc(CNC(C)C)cc(C(F)(F)F)c2)cc1-n1cc(-c2cnn(C)c2C)nn1 [Example I-107]	1.6	
Cc1ncc(C(=O)Nc2cc(C(F)(F)F)cc(N(C)CCN(C)C)c2C)cc1-n1cc(-c2cnn(C)c2C)nn1 [Example I-119]	1.8	
Cc1ncc(C(=O)Nc2cc(C(C)(C)C)on2)cc1-n1cc(-c2cncc(N3CCC4(CCN(C)CC4)CC3)c2)nn1 [Example I-195]	0.8	
Cc1ncc(C(=O)Nc2nnc(C(C)(C)C)s2)cc1-n1cc(-c2cncc(N3CCN(C(C)C)CC3)c2)nn1 [Example I-153]	1.8	
COc1ccc(C(=O)Nc2cnc(C)c(-n3cc(-c4cncc(N5CCN(C)CC5)c4)nn3)c2)cc1C(F)(F)F [XII-40]		remaining activity at 0.29 µM (measurement at 0.29 μM (*)): 3%
COc1ccc(NC(=O)c2cnc(C)c(-n3cc(-c4cnn(C)c4C)nn3)c2)cc1C(F)(F)F [Example I-7]	2	
Cc1ncc(C(=O)Nc2cc(CN3CCCC3)c(Cl)c(C(F)(F)F)c2)cc1-n1cc(-c2cncs2)nn1 [Example I-127]	6.1	
CCN1CCN(c2cc(NC(=O)c3cnc(C)c(-n4cc(-c5cncc(OC)c5)nn4)c3)cc(C(F)(F)F)c2C)CC1 [Example I-26]	1.4	
Cc1ncc(C(=O)Nc2cc(C(C)(C)C)on2)cc1-n1cc(-c2cncc(N3CCN(CCC#N)CC3)c2)nn1 [Example I-175]	8.1	
Cc1ncc(C(=O)Nc2cc(N3CCN(C)CC3)c(F)c(C(F)(F)F)c2)cc1-n1cc(-c2cncs2)nn1 [Example I-128]	5.3	
CCN1CCN(c2cc(NC(=O)c3cnc(C)c(-n4cc(-c5cncs5)nn4)c3)cc(C(F)(F)F)c2C)CC1 [Example I-43]	1.1	
Cc1ncc(C(=O)Nc2cc(C(C)(C)C)on2)cc1-n1cc(-c2cncc(N3CCOCC3)c2)nn1 [Example I-35]	1.7	
Cc1ncc(NC(=O)c2cccc(OC(F)(F)F)c2)cc1-n1cc(-c2cncc(N3CCN(C)CC3)c2)nn1 [XII-36]	1.3	
Cc1cn(-c2cc(NC(=O)c3cnc(C)c(-n4cc(-c5cncnc5)nn4)c3)cc(C(F)(F)F)c2)cn1 [Example I-79]	3.6	
COCCCN1CCN(c2cncc(-c3cn(-c4cc(NC(=O)c5cc(C(F)(F)F)ccn5)cnc4C)nn3)c2)CC1 [XII-31]	1.9	
Cc1ncc(NC(=O)c2cc(OC(F)(F)F)cc(N3CCN(C)CC3)c2)cc1-n1cc(-c2cccnc2)nn1 [XII-17]	0.9	
COc1c(CNC(C)C)cc(NC(=O)c2cnc(C)c(-n3cc(-c4cnc5cnc(C)cn45)nn3)c2)cc1C(F)(F)F [Example I-50]	2.2	
CCOCCN1CCN(c2cncc(-c3cn(-c4cc(NC(=O)c5ccc(OC)c(C(F)(F)F)c5)cnc4C)nn3)c2)CC1 [XII-44]	1.9	

Structure (SMILES)	remaining activity at 2 µM [%]	other results
COc1cncc(-c2cn(-c3cc(C(=O)Nc4cc(N5CCN(C)CC5)c(F)c(C(F)(F)F)c4)cnc3C)nn2)c1 [Example I-25]	2.2	
Cc1cn2c(-c3cn(-c4cc(C(=O)Nc5cc(N6CCN(C)CC6)cc(C(F)(F)F)c5)cnc4C)nn3)cnc2cn1 [Example I-45]	3.2	
Cc1ncc(C(=O)Nc2cnn(C(C)C)c2C)cc1-n1cc(-c2cncc(N3CCN(C(C)C)CC3)c2)nn1 [Example I-151]	4.5	
COc1cncc(-c2cn(-c3cc(C(=O)Nc4cc(OC(F)(F)F)cc(N5CCN(C)CC5)c4)cnc3C)nn2)c1 [Example I-85]	1.1	
Cc1cn2c(-c3cn(-c4cc(C(=O)Nc5cc(C(F)(F)F)ccn5)cnc4C)nn3)cnc2cn1 [Example I-32]	1.5	
Cc1ncc(C(=O)Nc2cc(C(C)(C)C)on2)cc1-n1cc(-c2cncc(N(C)C3CCOC3)c2)nn1 (centres unmarked) [Example I-38]	2.4	
CCOCCN1CCN(c2cncc(-c3cn(-c4cc(NC(=O)c5cc(C(F)(F)F)ccn5)cnc4C)nn3)c2)CC1 [XII-33]	1.7	
Cc1ncc(NC(=O)c2cc(N3CCN(C)CC3)cc(C(F)(F)F)c2)cc1-n1cc(-c2cnn(C)c2C)nn1 [XII-1]	4.4	
CCN1CC=C(c2cc(NC(=O)c3cnc(C)c(-n4cc(-c5cnn(C)c5C)nn4)c3)cc(C(F)(F)F)c2C)CC1 [Example I-97]	3.3	
Cc1ncc(NC(=O)c2cccc(OC(F)(F)F)c2)cc1-n1cc(-c2cncc(N3CCN(C(C)C)CC3)c2)nn1 [XII-42]	4.3	
Cc1ncc(NC(=O)c2cc(OC(F)(F)F)cc(C3=CCNCC3)c2)cc1-n1cc(-c2cnn(C)c2C)nn1 [XII-30]	1.8	
Cc1ncc(C(=O)Nc2cc(N3CC[C@@H](N(C)C)C3)c(C)c(C(F)(F)F)c2)cc1-n1cc(-c2cnn(C)c2C)nn1 [Example I-65]	7.1	
Cc1ncc(C(=O)Nc2cc(C(C)(C)C)on2)cc1-n1cc(-c2cncc(N3CCC(CN4CCOCC4)CC3)c2)nn1 [Example I-206]	0.9	
COCCNc1cncc(-c2cn(-c3cc(C(=O)Nc4cc(C(C)(C)C)on4)cnc3C)nn2)c1 [Example I-41]	1.1	
COc1cncc(-c2cn(-c3cc(C(=O)Nc4ccc(OC)c(C(F)(F)F)c4)cnc3C)nn2)c1 [Example I-92]	2.5	
Cc1ncc(NC(=O)c2cc(OC(F)(F)F)cc(N3CCN(C)CC3)c2)cc1-n1cc(-c2cnn(C)c2C)nn1 [XII-15]	0.8	
COc1c(CNCC(C)C)cc(C(F)(F)F)cc1NC(=O)c1cnc(C)c(-n2cc(-c3cnn(C)c3C)nn2)c1 [Example I-105]		remaining activity at 1.43 µM: 2%
Cc1ncc(C(=O)Nc2cc(N3CCOCC3)c(C)c(C(F)(F)F)c2)cc1-n1cc(-c2cnn(C)c2C)nn1 [Example I-61]	8.1	
Cc1ncc(C(=O)Nc2cc(C(C)(C)C)on2)cc1-n1cc(-c2cncs2)nn1 [Example I-82]	1.6	
CCN1CCN(c2cncc(-c3cn(-c4cc(NC(=O)c5cccc(C(C)(C)C#N)c5)cnc4C)nn3)c2)CC1 [XII-51]	2.3	
CCN1CCN(c2cc(OC(F)(F)F)cc(C(=O)Nc3cnc(C)c(-n4cc(-c5cnn(C)c5C)nn4)c3)c2)CC1 [XII-22]	3.4	

Structure (SMILES)	remaining activity at 2 µM [%]	other results
COCCCN1CCN(c2cncc(-c3cn(-c4cc(NC(=O)c5cccc(OC(F)(F)F)c5)cnc4C)nn3)c2)CC1 [XII-48]	2.4	
Cc1ncc(C(=O)Nc2cc(N3CCOCC3)cc(C(F)(F)F)c2)cc1-n1cc(-c2cnn(C)c2C)nn1 [Example I-69]	2.8	
Cc1ncc(C(=O)Nc2cc(C(C)(C)C)on2)cc1-n1cc(-c2cncc(CN)c2)nn1 [Example I-194]	2.1	
CCN(CC)c1cc(NC(=O)c2cnc(C)c(-n3cc(-c4cnn(C)c4C)nn3)c2)cc(C(F)(F)F)c1 [Example I-73]	1.7	
Cc1ncc(C(=O)Nc2cc(C(C)(C)C)on2)cc1-n1cc(-c2cncc(N(C)C3CCN(C(C)C)CC3)c2)nn1 [Example I-200]	1	
Cc1ncc(NC(=O)c2cc(OC(F)(F)F)cc(N3CCC(N(C)C)C3)c2)cc1-n1cc(-c2cnn(C)c2C)nn1 (centres unmarked) [XII-29]	1.6	
Cc1ncc(C(=O)Nc2cc(Br)c(C)c(C(F)(F)F)c2)cc1-n1cc(-c2cnn(C)c2C)nn1 [Example I-56]	1.4	
Cc1ncc(NC(=O)c2cccc(C(C)(C)C#N)c2)cc1-n1cc(-c2cncc(CN3CCCC3)c2)nn1 [XII-65]	0.9	
CNCc1cc(NC(=O)c2cnc(C)c(-n3cc(-c4cnn(C)c4C)nn3)c2)cc(C(F)(F)F)c1 [Example I-110]	1.3	
Cc1ncc(NC(=O)c2cc(N3CCN(C)CC3)c(F)c(C(F)(F)F)c2)cc1-n1cc(-c2cnn(C)c2C)nn1 [XII-5]	1.8	
Cc1ncc(NC(=O)c2cccc(C(C)(C)C#N)c2)cc1-n1cc(-c2cccnc2)nn1 [XII-11]		remaining activity at 1.43 µM: 1.5%
CCN1CCN(c2cncc(-c3cn(-c4cc(C(=O)Nc5cc(C(C)(C)C)on5)cnc4C)nn3)c2)CC1 [Example I-134]	2.6	
Cc1ncc(C(=O)Nc2cc(CN3CCCC3)cc(C(F)(F)F)c2)cc1-n1cc(-c2cncs2)nn1 [Example I-123]	5.8	
COc1c(NC(=O)c2cnc(C)c(-n3cc(-c4cnn(C)c4C)nn3)c2)cc(C(C)(C)C)cc1NS(C)(=O)=O [Example I-9]	1.4	
Cc1ncc(C(=O)Nc2cc(N3CCN(C)CC3)cc(C(F)(F)F)c2)cc1-n1cc(-c2cncnc2)nn1 [Example I-18]	2.4	
Cc1ncc(C(=O)Nc2cc(C(F)(F)F)ccn2)cc1-n1cc(-c2cncc(N3CCN(C)CC3)c2)nn1 [Example I-144]	1.9	
Cc1ncc(C(=O)Nc2ccc(Cl)c(C(C)(C)C)c2)cc1-n1cc(-c2cncc(N3CCN(C)CC3)c2)nn1 [Example I-147]	3.1	
COCCN(C)Cc1cc(NC(=O)c2cnc(C)c(-n3cc(-c4cnn(C)c4C)nn3)c2)cc(C(F)(F)F)c1 [Example I-109]	1.8	
Cc1ncc(C(=O)Nc2cc(C(C)(C)C)n[nH]2)cc1-n1cc(-c2cncs2)nn1 [Example I-83]	1.1	
Cc1ncc(NC(=O)c2cc(OC(F)(F)F)cc(N3CCOCC3)c2)cc1-n1cc(-c2cnn(C)c2C)nn1 [XII-25]	3.9	
